Data on 1 molecule can be found in patent publication EP0073394A1, “2-Arylazo-2-imidazolines, acyl derivatives of the same, process for their preparation and the use in the control of ectoparasites and/or endoparasites” (BAYER AG, priority 1981, dated 1983).

This assay relates to Boophilus microplus, Biarra-Stamm. In words: Tick test (Zeckentest): in vitro test for inhibition of egg laying after dipping adult engorged female ticks. The format is in vivo. The following applies: Rhipicephalus microplus, 480 h, resistant Biarra strain, 1 min dip, read after 20 days, read-out: 50 % Hemmung bei einer Wirkstoffkonzentration in ppm a.i. von. The source says:
Lösungsmittel: 35 Gewichtsteile Ethylenglykolmonomethylether 35 Gewichtsteile Nonylphenolpolyglykolether
Zwecks Herstellung einer geeigneten Formulierung vermischt man drei Gewichtsteile Wirkstoff mit sieben Teilen des oben angegebenen Lösungsmittel-Emulgator-Gemisches und verdünnt das so erhaltene Emulsionskonzentrat mit Wasser auf die jeweils gewünschte Konzentration.
In diese Wirkstoffzubereitungen werden adulte, vollgesogene Zeckenweibchen der Art Boophilus microplus (resistent) eine Minute lang getaucht. Nach dem Tauchen von je 10 weiblichen Exemplaren überführt man diese in Petrischalen, deren Boden mit einer entsprechend großen Filterscheibe belegt ist.
Nach 20 Tagen wird die Wirksamkeit der Wirkstoffzubereitung bestimmt durch Ermittlung der Hemmung der Eiablage gegenüber unbehandelten Kontrollzecken. Die Wirkung drückt man in Prozent aus, wobei 100 % bedeutet, daß keine Eier mehr abgelegt wurden und 0 % besagt, daß die Zecken Eier in normaler Menge ablegten.
Untersuchter Wirkstoff, geprüfte Konzentrationen, getestete Parasiten und erhaltene Befunde gehen aus der folgenden Tabelle hervor.

Consider `Cc1cc(Cl)ccc1NC(=S)N(C)C` [Chloromethiuron], for which the IC50 is more than 5000 µg/mL.
